# Tests used:
# [1] = test system: normotensive volunteers / hypertensive patients; set-up: method as in PMID 11116103; settings: cited from earlier work
# healthy volunteers [2] = assay: Capsaicin cough challenge (cough sensitivity C2/C5); format: in vivo, human
# Protocol: (§1) This was a repeated-dose, balanced, two-sequence, two-period, two-treatment, non-placebo controlled, randomized, crossover design study. Since this study examined two ACE-i agents with similar characteristics and was performed using an open design, blinding was not necessary. […] The administered doses were those used for treatment of hypertension and which would yield a similar percentage of responders.
# (§2) Capsaicin and citric acid cough challenges were performed prior to and following each 7-day treatment period (Table 2). Cough sensitivity was assessed as the lowest capsaicin or citric acid concentrations causing at least 2 (C2) or 5 coughs (C5), provided that cough was still present following inhalation of the next tussigenic concentration. C2 and C5 values were converted to logC2 and logC5, respectively, for analysis. Concentrations of both capsaicin and citric acid were prepared according to standard procedures, nebulized by a jet nebulizer (DeVilbiss 646, DeVilbiss Health Care Inc., Somerset, PA) driven by compressed air (8 L/min), and inhaled for 1 min during normal tidal breathing. Volunteers undergoing cough challenges were specifically instructed not to attempt to suppress coughs and not to talk immediately after inhalation of the tussigenic agent. In addition, subjects were given the following instruction: “allow yourself to cough if you need to, and as much as you need to”. Subjects were also requested to note on a diary the occurrence of spontaneous cough during the two 7-day treatment periods, using a verbal scale.
# healthy volunteers [3] = assay: Citric acid cough challenge (cough sensitivity C2/C5); format: in vivo, human
# Protocol: as §1, §2
# healthy volunteers [4] = assay: Spontaneous cough recordings (diary); format: in vivo, human; settings: for total distinct coughing episodes: during 7-day treatment, 40 volunteers; for volunteers who recorded at least 1 spontaneous coughing episode: out of 40, during 7-day treatment
# Protocol: as §2
# A p value <0.05 was considered statistically significant.
# [5] = Plasma pharmacokinetics at steady state (day 7)
# Protocol: (§3) Blood samples for the measurement of PK parameters and for BK determination were obtained at pre-dose and after drug administration for each of the two study periods (Table 2). […] Repeated pre-dose PK variables determination was performed in order to establish baseline variability.
# Spontaneous cough occurring during the two treatment periods was only qualitatively assessed, as the prevalence was expected to be low or very low. AUCss,τ PK parameters were calculated from the individual concentration-time data by using the program WinNonlin software (Pharsight Corporation, Mountain View, CA, USA) and summarized by treatment by means of descriptive statistics, in order to determine mean and standard deviation values. Paired t-test was used to compare mean FeNO values recorded after administration of the test and the reference drug. Statistical analyses were performed by using GraphPad Prism, version 3.02 (GraphPad Software, Inc. La Jolla, CA); sample size and power calculations were performed by using a dedicated software (nQuery Advisor, release 2.0, Los Angeles, CA). A p value <0.05 was considered statistically significant.
# healthy volunteers [6] = assay: Airway inflammation by fractional exhaled nitric oxide (FeNO); format: in vivo, human
# From the text: FeNO measurements were always performed before cough challenges using a standardized single-breath method with an electrochemical analyzer (HypAir FeNO system, Medisoft, Sorinnes, BE). Subjects were seated (with no nose clip), and exhaled to residual volume, inserted the mouthpiece, inhaled to total lung capacity, then exhaled for 10 seconds at a constant flow rate of 0.05 L/s ± 10%. The end-point of measurement was considered when a plateau of at least 4 seconds was observed. Exhalations were repeated after a 30-second period of relaxation until 3 independent FeNO values with ≤10% variation were obtained.
# bradykinin (BK) = assay: Bradykinin plasma levels; format: in vivo, human; settings: day 7 of treatment period, zofenopril 30 mg vs ramipril 10 mg
# Protocol: as §3
# healthy volunteers [7] = assay: Adverse event and vital signs monitoring; format: in vivo, human
# Protocol: as §1
# plasma ACE activity = settings: at 24 h after single oral doses of 30 mg; cited from earlier work
# [8] = cited from earlier work
# prostaglandins = test system: prostaglandins; set-up: method as in PMID 1850188; settings: in-vivo study, compared with other ACE-i; cited from earlier work
# guinea pigs = settings: cited from earlier work
# rabbits = settings: cited from earlier work
# [9] = single dose, cited from earlier work
# ACE = settings: compared with complexes of other ACE inhibitors; cited from earlier work
structure (smiles),measurement,setting,value
CCOC(=O)[C@H](CCc1ccccc1)N[C@@H](C)C(=O)N1CCC[C@H]1C(=O)O [enalapril],effect on FeNO in hypertensive patients,[1],did not show FeNO increase
same,effect on FeNO in normotensive volunteers,[1]; within a few hours,capable of increasing FeNO
C[C@H](CSC(=O)c1ccccc1)C(=O)N1C[C@@H](Sc2ccccc2)C[C@H]1C(=O)O [zofenopril],"capsaicin LogC2 (concentration causing at least 2 coughs), mean ± SD","healthy volunteers [2]; after 7-day treatment (zofenopril 30 mg/day, ramipril 10 mg/day), 40 volunteers, controls 0.81 ± 0.42 (zofenopril), 0.78 ± 0.41 (ramipril)",0.75 ± 0.40 μM
same,"capsaicin LogC5 (concentration causing at least 5 coughs), mean ± SD","healthy volunteers [2]; after 7-day treatment, 40 volunteers, controls 1.4 ± 0.72 (zofenopril), 1.3 ± 0.63 (ramipril)",1.3 ± 0.68 μM
same,"citric acid LogC2, mean ± SD","healthy volunteers [3]; after 7-day treatment, 40 volunteers, controls 1.85 ± 1.24 (zofenopril), 1.80 ± 1.28 (ramipril)",1.81 ± 1.27 mM
same,"citric acid LogC5, mean ± SD","healthy volunteers [3]; after 7-day treatment, 40 volunteers, controls 2.69 ± 1.88 (zofenopril), 2.67 ± 2.01 (ramipril)",2.51 ± 1.57 mM
same,total distinct coughing episodes,healthy volunteers [4],36
same,volunteers who recorded at least 1 spontaneous coughing episode,healthy volunteers [4],7
same,Cmin (lowest plasma concentration in the τ period),[5]; 24 h interval after administration on day 7,0
same,"AUCss,τ, mean ± SD","[5]; 24 h interval after drug administration on day 7, zofenopril 30 mg/day or ramipril 10 mg/day oral",84.25 ± 34.47 ng/ml x h
same,"FeNO, mean ± SD","healthy volunteers [6]; after 7-day treatment, controls 22 ± 12 (zofenopril), 24 ± 9.6 (ramipril)",26 ± 12 PPB
same,BK plasma levels after administration,bradykinin (BK),No difference
same,subjects reporting adverse events of mild intensity,"healthy volunteers [7]; of 40 subjects, headache, vomit, backache, vertigo",8
same,suppression of plasma ACE activity,plasma ACE activity,74.4%
same,oral absorption,[8]; after oral administration,completely absorbed
same,capability to stimulate the production of prostaglandins,prostaglandins,less than that of other ACE-i
same,effect on citric-acid induced cough,guinea pigs,did not increase
same,cough response induced by mechanical and chemical airway stimulation,rabbits,"but not zofenopril, increased"
C[C@H](CS)C(=O)N1C[C@@H](Sc2ccccc2)C[C@H]1C(=O)O [zofenoprilat],time to peak blood levels,[8]; after oral administration of zofenopril,1.5 h
CCOC(=O)[C@H](CCc1ccccc1)N[C@@H](C)C(=O)N1[C@H](C(=O)O)C[C@@H]2CCC[C@@H]21 [ramipril],"capsaicin LogC5 (concentration causing at least 5 coughs), mean ± SD","healthy volunteers [2]; human, in vivo, 7 days",0.45 ± 0.38 μM
same,"citric acid LogC2, mean ± SD","healthy volunteers [3]; human, in vivo, 7 days",1.48 ± 1.09 mM
same,"citric acid LogC5, mean ± SD","healthy volunteers [3]; human, in vivo, 7 days",2.23 ± 1.04 mM
same,total distinct coughing episodes,healthy volunteers [4],24
same,volunteers who recorded at least 1 spontaneous coughing episode,healthy volunteers [4],9
same,"FeNO, mean ± SD",healthy volunteers [6]; in vivo,33 ± 16 PPB
same,BK plasma levels after administration,bradykinin (BK),No difference
same,subjects reporting adverse events of mild intensity,"healthy volunteers [7]; human, in vivo, 7 days",5
same,time to peak antihypertensive effect,[9]; after oral administration,3 to 6 h
same,duration of antihypertensive effect,[9]; oral,24 h
same,augmentation of citric-acid induced cough,guinea pigs,40-60%
same,cough response induced by mechanical and chemical airway stimulation,rabbits,increased
C[C@H](N[C@@H](CCc1ccccc1)C(=O)O)C(=O)N1[C@H](C(=O)O)C[C@@H]2CCC[C@@H]21 [ramiprilat],time to peak plasma concentrations,[8]; after intake of ramipril,2 to 4 h
same,stability/dissociation of inhibitor-ACE complex,ACE,dissociates more slowly

# From PMC4308941 (Cough (London, England), 2014)
